Laboratory results as given in patent US20250205264A1, “METHODS OF USING AVERMECTIN COMPOSITIONS FOR THE TREATMENT OF SPASTICITY AND DOSING REGIMENS” (priority 2022, published 2025).

Assay: Excipient compatibility study at 40° C./75% RH (HPLC Assay/Related Substances)
Type: physicochemical
Details: for Chromatographic purity by HPLC (% area) / Total Impurities % (% adjusted area): 40° C./75% RH; for Total Impurities % (% adjusted area): excluding API impurities
Procedure: An excipient compatibility study was initiated with selected excipients ranging from oils to surfactants based on equilibrium solubility results (Table 2). […] After solutions were prepared using a hand-held homogenizer (Model IKAT10 Ultra-Turrax), each excipient sample was aliquoted in amber vials, approximately 10% water was added in each excipient aliquot, and bench scale gel stripe OET-004037 was also made and added in a separate set of aliquot samples at approximately 1:1 w/w.
All samples were stored at 40° C./75% relative humidity (RH) condition (Model: Lunaire environmental chamber) and tested by developmental reversed phase HPLC method for Assay/Related Substances at T=0, 2 weeks, and 1 month.

[1] = in Maisine CC, Gel Stripe (1:1 w/w), T = 1 months
[2] = in Maisine CC, Gel Stripe (1:1 w/w), T = 2 weeks
[3] = in Masester E8120, 10% water, T = 1 months
[4] = in Masester E8120, 10% water, T = 2 weeks
[5] = in Masester E8120, Control, T = 0
[6] = in Masester E8120, Control, T = 1 months
[7] = in Masester E8120, Control, T = 2 weeks
[8] = in Masester E8120, Gel Stripe (1:1 w/w), T = 1 months
[9] = in Masester E8120, Gel Stripe (1:1 w/w), T = 2 weeks
[10] = in Oleic acid, 10% water, T = 2 weeks
[11] = in Oleic acid, Control, T = 2 weeks
[12] = in Oleic acid, Gel Stripe (1:1 w/w), T = 2 weeks
[13] = in PEG 400, 10% water, T = 2 weeks
[14] = in PEG 400, Control, T = 2 weeks
[15] = in PEG 400, Gel Stripe (1:1 w/w), T = 2 weeks
[16] = in Tween 80, 10% water, T = 1 months
[17] = in Tween 80, 10% water, T = 2 weeks
[18] = in Tween 80, Control, T = 1 months
[19] = in Tween 80, Control, T = 2 weeks
[20] = in Tween 80, Gel Stripe (1:1 w/w), T = 1 months
[21] = in Tween 80, Gel Stripe (1:1 w/w), T = 2 weeks
[22] = in Vitamin E TPGS, 10% water, T = 1 months
[23] = in Vitamin E TPGS, 10% water, T = 2 weeks
[24] = in Vitamin E TPGS, Control, T = 0
[25] = in Vitamin E TPGS, Control, T = 1 months
[26] = in Vitamin E TPGS, Control, T = 2 weeks
[27] = in Vitamin E TPGS, Gel Stripe (1:1 w/w), T = 1 months
[28] = in Vitamin E TPGS, Gel Stripe (1:1 w/w), T = 2 weeks

## ivermectin
[1]
  Chromatographic purity by HPLC (% area): 96.94 % area
  Total Impurities % (% adjusted area): 0.58 % adjusted area
[2]
  Chromatographic purity by HPLC (% area): 96.15 % area
  Total Impurities % (% adjusted area): 0.33 % adjusted area
[3]
  Chromatographic purity by HPLC (% area): 91.68 % area
  Total Impurities % (% adjusted area): 6.60 % adjusted area
[4]
  Chromatographic purity by HPLC (% area): 95.11 % area
  Total Impurities % (% adjusted area): 2.27 % adjusted area
[5]
  Chromatographic purity by HPLC (% area): 97.58 % area
  Total Impurities % (% adjusted area): 0.17 % adjusted area
[6]
  Chromatographic purity by HPLC (% area): 97.06 % area
  Total Impurities % (% adjusted area): 0.45 % adjusted area
[7]
  Chromatographic purity by HPLC (% area): 96.81 % area
  Total Impurities % (% adjusted area): 0.58 % adjusted area
[8]
  Chromatographic purity by HPLC (% area): 97.31 % area
  Total Impurities % (% adjusted area): 0.18 % adjusted area
[9]
  Chromatographic purity by HPLC (% area): 97.35 % area
  Total Impurities % (% adjusted area): 0.11 % adjusted area
[10]
  Chromatographic purity by HPLC (% area): 86.02 % area
  Total Impurities % (% adjusted area): 9.89 % adjusted area
In Oleic acid, Control, T = 0
  Chromatographic purity by HPLC (% area): 99.60 % area
  Total Impurities % (% adjusted area): <LOQ
[11]
  Chromatographic purity by HPLC (% area): 83.55 % area
  Total Impurities % (% adjusted area): 17.27 % adjusted area
[12]
  Chromatographic purity by HPLC (% area): 83.73 % area
  Total Impurities % (% adjusted area): 11.82 % adjusted area
[13]
  Chromatographic purity by HPLC (% area): 94.35 % area
  Total Impurities % (% adjusted area): 3.15 % adjusted area
In PEG 400, Control, T = 0
  Chromatographic purity by HPLC (% area): 97.58 % area
  Total Impurities % (% adjusted area): 0.10 % adjusted area
[14]
  Chromatographic purity by HPLC (% area): 89.36 % area
  Total Impurities % (% adjusted area): 8.54 % adjusted area
[15]
  Chromatographic purity by HPLC (% area): 96.92 % area
  Total Impurities % (% adjusted area): 0.50 % adjusted area
[16]
  Chromatographic purity by HPLC (% area): 91.18 % area
  Total Impurities % (% adjusted area): 6.94 % adjusted area
[17]
  Chromatographic purity by HPLC (% area): 93.02 % area
  Total Impurities % (% adjusted area): 3.53 % adjusted area
In Tween 80, Control, T = 0
  Chromatographic purity by HPLC (% area): 97.53 % area
  Total Impurities % (% adjusted area): 0.16 % adjusted area
[18]
  Chromatographic purity by HPLC (% area): 88.45 % area
  Total Impurities % (% adjusted area): 10.55 % adjusted area
[19]
  Chromatographic purity by HPLC (% area): 91.87 % area
  Total Impurities % (% adjusted area): 4.86 % adjusted area
[20]
  Chromatographic purity by HPLC (% area): 93.51 % area
  Total Impurities % (% adjusted area): 4.22 % adjusted area
[21]
  Chromatographic purity by HPLC (% area): 93.97 % area
  Total Impurities % (% adjusted area): 2.43 % adjusted area
[22]
  Chromatographic purity by HPLC (% area): 97.46 % area
  Total Impurities % (% adjusted area): <LOQ
[23]
  Chromatographic purity by HPLC (% area): 96.99 % area
  Total Impurities % (% adjusted area): 0.42 % adjusted area
[24]
  Chromatographic purity by HPLC (% area): 97.74 % area
  Total Impurities % (% adjusted area): <LOQ
[25]
  Chromatographic purity by HPLC (% area): 97.37 % area
  Total Impurities % (% adjusted area): 0.11 % adjusted area
[26]
  Chromatographic purity by HPLC (% area): 97.43 % area
  Total Impurities % (% adjusted area): <LOQ
[27]
  Chromatographic purity by HPLC (% area): 97.74 % area
  Total Impurities % (% adjusted area): <LOQ
[28]
  Chromatographic purity by HPLC (% area): 97.50 % area
  Total Impurities % (% adjusted area): <LOQ
Oily vehicles Maisine CC, fractionated coconut oil, and oleic acid
  chemical compatibility with the API: good chemical compatibility
